Laboratory results from patent US8541362B2, “Cyclopropyl compounds and compositions for delivering active agents” (Emisphere Technologies, Inc., priority 2005, dated 2013).
Values belong to the compound of their own block, whether it stands above or below them.

What was measured:
Type in all cases: in vivo, rat
[1] = test system: Sprague Dawley rats; experiment: Oral delivery of insulin in rats with delivery agent: change in blood glucose; conditions: delivery agent: insulin = 200 mg: 0.5 mg per Kg
[2] = Oral delivery of insulin in rats with delivery agent: serum insulin by ELISA; conditions: procedure of Example 2 (0.25 mg/kg insulin, 100 mg/kg delivery agent)
Protocol: (§1) General anesthesia was induced in Sprague Dawley rats (250-350 gram) with 5% isoflurane in an anesthetic chamber, and the anesthesia was maintained with 2% isoflurane in 98% oxygen carrier gas up to the end of the study.
(§2) Jugular vein cannulation was carried out first for blood sampling by creating an incision just above the right clavicle. Using blunt forceps, the connective and adipose tissue were pushed aside and the jugular vein was exposed. The distal end of the exposed jugular vein was ligated, while its proximal end was strained to occlude the blood flow momentarily. A portion of the vessel near to the distal end was nipped, and the silicon catheter was inserted toward the proximal direction. After the catheter was tightened with a silk suture, the skin wound was closed with surgical staples.
(§3) The jejunum was prepared as follows: the proximal jejunum section was identified first. Plasma insulin and blood glucose levels were determined from a blood sample from the […] and used as a baseline.
(§4) The animal's abdominal cavity was opened. After the jejunum was identified, the part of the proximal segment was nipped with surgical scissors. A dosing tubing connected to a 1 ml syringe was introduced into the incised jejunum and carefully dosed. After dosing, the dosing tubing was removed. Then, a 2-cm polyethylene tubing was inserted into the jejunum so that the cut opening was located in the middle of the tubing. Both ends of the tube were tied with suture with the jejunum tissue to secure the jejunum, and, after the wound dried, a vet bond was applied over the top of the wound with a cotton swab. A 2 cm bridge tubing was placed to maintain the intestinal fluid flow intact.
(§5) After dosing and installation of the bridge, the exposed intestines were gently pushed back into place. The exposed wounds were covered with a wet gauge, and then with a paraffin film to prevent dehydration. Thereafter, blood samplings were performed at scheduled time-points.
(§6) Dose: 0.25 mg/kg Insulin, 100 mg/kg Delivery Agent, Concentration: 0.25 mg/ml, 100 mg/ml. Dose volume: 1 ml/kg.
(§7) Human recombinant insulin (ICN Biomedicals, Aurora, Ohio) was dissolved in deionized water (ph˜6.5) to obtain stock insulin solutions having a concentration of 15 mg/ml. 7-cyclopropylheptanoic acid was dissolved in deionized water to obtain a 200 mg/ml delivery agent solution. The free acid form of the delivery agent was converted to the sodium salt by adding one equivalent of sodium hydroxide. Solutions were vortexed, sonicated, and heated. If necessary, additional sodium hydroxide was added in μl quantities to achieve uniform solubility in the delivery agent solutions. Solutions were adjusted to a pH of 7.5-8.5 by the addition of either hydrochloric acid or sodium hydroxide, as appropriate. The insulin stock solution was then added to the delivery agent solutions to obtain an administration solution ultimately having an insulin concentration of 0.25 mg/ml. After solubilization and drug addition, administration solutions were brought to a final volume by the addition of deionized water.
The insulin assay was performed as follows. Concentrations of insulin were quantified in rat serum using a sandwich-type ELISA kit (Diagnostic Systems Laboratories, Inc., Webster, Tex.). Samples were collected into capiject tubes containing a clot activator (red top, serum separator tubes). Samples were allowed to clot for ˜20 minutes at 4° C. […]

[3] = test system: Sprague Dawley rats; experiment: Oral delivery of insulin in rats with delivery agent: change in blood glucose; conditions: 0.25 mg/kg insulin + 100 mg/kg delivery agent
Protocol: as §1, §2, §3, §4, §5, §6, §7

SMILES: O=C(O)CCCCCCC(=O)NCC1CC1 [Compound 13]
% of Glucose Reduction from Control ([1]; time 0 min): −0.862%
% of Glucose Reduction from Control ([1]; time 15 min): −10.523%
% of Glucose Reduction from Control ([1]; time 30 min): −20.866%
% of Glucose Reduction from Control ([1]; time 45 min): −28.011%
% of Glucose Reduction from Control ([1]; time 60 min): −32.952%

SMILES: O=C(O)CCCCCCCCC(=O)NC1CC1 [Compound 9, 10-(cyclopropylamino)-10-oxodecanoic acid]
Max Mean Cmax [uU/mL] [2]: 142.7 ± 62.7 uU/mL

SMILES: O=C(O)CCCCCCC1CC1 [Compound 1, 7-cyclopropylheptanoic acid]
Decrease of blood glucose (%) Average Value ([3]; time 0 min): 0%
Decrease of blood glucose (%) Average Value ([3]; time 5 min): −1.5%
Decrease of blood glucose (%) Average Value ([3]; time 10 min): −15.3%
Decrease of blood glucose (%) Average Value ([3]; time 20 min): −32.9%
Decrease of blood glucose (%) Average Value ([3]; time 40 min): −38.7%
Decrease of blood glucose (%) Average Value ([3]; time 60 min): −36.6%
Decrease of blood glucose (%) Average Value ([3]; time 90 min): −21.8%

SMILES: COC(=O)CCCCCCC(=O)NC1CC1 [Compound 11]
Max Mean Cmax [uU/mL] [2]: 84.93 ± 57.8 uU/mL

SMILES: COC(=O)CCCCCCC(=O)NCC1CC1 [Compound 14]
Max Mean Cmax [uU/mL] [2]: 71.3 ± 35.2 uU/mL

More lines, now with the values ahead:

Max Mean Cmax [uU/mL] [2]: 71.2 ± 33.7 uU/mL
SMILES: O=C(O)CCCCCCCCC(=O)NCC1CC1 [Compound 15]

Max Mean Cmax [uU/mL] [2]: 340.4 ± 191.3 uU/mL
SMILES: COC(=O)CCCCCCCCC(=O)NC1CC1 [Compound 12]
